From the NIST ThermoML archive (doi:10.1021/je0601457)
Numbers after ± are expanded uncertainties.

Assay: xn = mol fraction of the nth substance listed

Cc1nccnc1C [2,3-dimethylpyrazine] + O=C=O
Fluid (supercritical or subcritical phases), Linear displacement technique
Settings	mass density [kg/m3]
328.55 K, 14100 kPa, x1 = 0.291	857 ± 34
328.55 K, 15620 kPa, x1 = 0.01	757 ± 31
328.55 K, 16930 kPa, x1 = 0.291	859 ± 34
329.65 K, 6660 kPa, x1 = 0.565	912 ± 36
329.65 K, 8240 kPa, x1 = 0.565	914 ± 37
329.65 K, 14590 kPa, x1 = 0.565	919 ± 37
329.75 K, 12170 kPa, x1 = 0.033	656 ± 27
329.75 K, 12970 kPa, x1 = 0.033	684 ± 28
329.75 K, 14310 kPa, x1 = 0.033	713 ± 29
329.75 K, 16930 kPa, x1 = 0.033	765 ± 31
329.85 K, 12860 kPa, x1 = 0.108	845 ± 36
329.85 K, 14590 kPa, x1 = 0.108	855 ± 34
329.85 K, 19000 kPa, x1 = 0.108	879 ± 35
330.35 K, 11790 kPa, x1 = 0.157	902 ± 39
330.35 K, 14240 kPa, x1 = 0.157	919 ± 37
330.35 K, 17550 kPa, x1 = 0.157	937 ± 38
331.65 K, 11550 kPa, x1 = 0.086	645 ± 26
331.65 K, 12210 kPa, x1 = 0.057	762 ± 32
331.65 K, 12830 kPa, x1 = 0.057	785 ± 33
331.65 K, 14030 kPa, x1 = 0.086	676 ± 28
331.65 K, 15620 kPa, x1 = 0.086	689 ± 28
331.65 K, 19380 kPa, x1 = 0.057	886 ± 36
332.85 K, 12790 kPa, x1 = 0.049	767 ± 32
332.85 K, 14620 kPa, x1 = 0.049	811 ± 33
332.85 K, 15690 kPa, x1 = 0.049	834 ± 35
333.95 K, 5520 kPa, x1 = 0.736	855 ± 34
333.95 K, 12830 kPa, x1 = 0.736	858 ± 34
333.95 K, 19520 kPa, x1 = 0.736	858 ± 34
335.15 K, 12970 kPa, x1 = 0.027	605 ± 28
335.15 K, 13550 kPa, x1 = 0.027	633 ± 28
335.15 K, 14590 kPa, x1 = 0.027	668 ± 29
338.75 K, 11790 kPa, x1 = 0.184	860 ± 34
338.75 K, 14170 kPa, x1 = 0.184	874 ± 35
338.75 K, 16720 kPa, x1 = 0.184	886 ± 35
340.75 K, 12790 kPa, x1 = 0.108	786 ± 33
340.75 K, 14030 kPa, x1 = 0.108	810 ± 33
340.75 K, 17340 kPa, x1 = 0.108	837 ± 34
340.75 K, 20170 kPa, x1 = 0.108	858 ± 34
341.25 K, 10790 kPa, x1 = 0.01	327 ± 20
341.95 K, 8900 kPa, x1 = 0.433	918 ± 37
341.95 K, 12340 kPa, x1 = 0.433	926 ± 37
341.95 K, 17480 kPa, x1 = 0.433	934 ± 37
341.95 K, 23830 kPa, x1 = 0.433	945 ± 38
343.15 K, 13410 kPa, x1 = 0.057	679 ± 28
343.15 K, 14660 kPa, x1 = 0.057	719 ± 30
343.15 K, 16170 kPa, x1 = 0.057	750 ± 31
343.25 K, 14210 kPa, x1 = 0.033	585 ± 26
343.25 K, 14930 kPa, x1 = 0.033	615 ± 26
343.25 K, 16340 kPa, x1 = 0.033	657 ± 28
345.05 K, 14100 kPa, x1 = 0.049	698 ± 30
345.05 K, 15410 kPa, x1 = 0.049	745 ± 31
345.05 K, 17240 kPa, x1 = 0.049	791 ± 32
345.85 K, 15140 kPa, x1 = 0.086	626 ± 25
345.85 K, 15900 kPa, x1 = 0.086	638 ± 33
347.05 K, 11760 kPa, x1 = 0.291	853 ± 34
347.05 K, 14070 kPa, x1 = 0.291	855 ± 34
347.05 K, 18860 kPa, x1 = 0.291	857 ± 34
347.65 K, 8210 kPa, x1 = 0.565	895 ± 36
347.65 K, 11830 kPa, x1 = 0.565	901 ± 36
347.65 K, 18520 kPa, x1 = 0.565	907 ± 36
347.85 K, 12690 kPa, x1 = 0.184	828 ± 33
347.85 K, 13450 kPa, x1 = 0.184	837 ± 34
347.85 K, 15690 kPa, x1 = 0.184	853 ± 35
348.35 K, 9900 kPa, x1 = 0.433	906 ± 36
348.35 K, 15140 kPa, x1 = 0.433	917 ± 37
348.35 K, 23070 kPa, x1 = 0.433	931 ± 37
350.75 K, 14660 kPa, x1 = 0.108	747 ± 30
350.75 K, 15690 kPa, x1 = 0.108	766 ± 31
350.75 K, 17410 kPa, x1 = 0.108	790 ± 33
352.25 K, 14550 kPa, x1 = 0.057	618 ± 26
352.25 K, 16340 kPa, x1 = 0.057	678 ± 28
352.25 K, 18760 kPa, x1 = 0.057	731 ± 30
354.15 K, 16900 kPa, x1 = 0.157	847 ± 35
354.15 K, 19280 kPa, x1 = 0.157	865 ± 35
354.15 K, 25210 kPa, x1 = 0.157	904 ± 36
355.25 K, 14550 kPa, x1 = 0.049	608 ± 28
355.25 K, 15410 kPa, x1 = 0.049	652 ± 28
355.25 K, 17280 kPa, x1 = 0.049	702 ± 29
357.15 K, 13760 kPa, x1 = 0.433	897 ± 36
357.15 K, 17310 kPa, x1 = 0.433	905 ± 36
357.15 K, 21970 kPa, x1 = 0.433	914 ± 37
358.65 K, 12930 kPa, x1 = 0.291	848 ± 34
358.65 K, 15410 kPa, x1 = 0.291	852 ± 34
358.65 K, 20590 kPa, x1 = 0.291	855 ± 34
360.55 K, 6970 kPa, x1 = 0.736	846 ± 34
360.55 K, 11100 kPa, x1 = 0.736	850 ± 34
360.55 K, 17970 kPa, x1 = 0.736	853 ± 34
362.95 K, 16930 kPa, x1 = 0.086	561 ± 25
362.95 K, 17410 kPa, x1 = 0.086	574 ± 24
362.95 K, 19410 kPa, x1 = 0.086	604 ± 25
365.05 K, 16480 kPa, x1 = 0.057	573 ± 24
365.05 K, 18310 kPa, x1 = 0.057	636 ± 27
365.05 K, 20170 kPa, x1 = 0.057	679 ± 28
365.05 K, 23210 kPa, x1 = 0.057	725 ± 29
365.55 K, 19340 kPa, x1 = 0.184	818 ± 33
365.55 K, 24520 kPa, x1 = 0.184	848 ± 34
365.55 K, 45000 kPa, x1 = 0.184	900 ± 37
368.45 K, 17140 kPa, x1 = 0.108	690 ± 32
368.45 K, 19480 kPa, x1 = 0.108	731 ± 30
368.45 K, 25100 kPa, x1 = 0.108	791 ± 32
368.45 K, 34900 kPa, x1 = 0.108	848 ± 34
371.85 K, 15900 kPa, x1 = 0.027	402 ± 18
371.85 K, 17140 kPa, x1 = 0.027	432 ± 21
373.25 K, 16720 kPa, x1 = 0.049	558 ± 25
373.25 K, 17900 kPa, x1 = 0.049	605 ± 26
373.25 K, 20100 kPa, x1 = 0.049	667 ± 28
373.55 K, 9210 kPa, x1 = 0.565	867 ± 35
373.55 K, 12380 kPa, x1 = 0.565	873 ± 35
373.55 K, 18520 kPa, x1 = 0.565	883 ± 35
374.25 K, 17410 kPa, x1 = 0.086	507 ± 21
374.25 K, 18100 kPa, x1 = 0.086	521 ± 22
374.25 K, 18900 kPa, x1 = 0.086	540 ± 23
375.05 K, 18100 kPa, x1 = 0.033	466 ± 20
375.05 K, 19410 kPa, x1 = 0.033	499 ± 21
375.05 K, 20690 kPa, x1 = 0.033	526 ± 22
375.85 K, 20590 kPa, x1 = 0.157	805 ± 35
375.85 K, 23340 kPa, x1 = 0.157	829 ± 33
375.85 K, 26520 kPa, x1 = 0.157	856 ± 34
380.65 K, 12760 kPa, x1 = 0.433	852 ± 34
380.65 K, 16100 kPa, x1 = 0.433	861 ± 34
380.65 K, 21660 kPa, x1 = 0.433	876 ± 35
381.45 K, 15210 kPa, x1 = 0.291	831 ± 33
381.45 K, 15690 kPa, x1 = 0.291	830 ± 33
381.45 K, 21340 kPa, x1 = 0.291	841 ± 34

Liquid, linear displacement
Settings	mass density [kg/m3]
328.55 K, x1 = 0.291	855 ± 34
329.65 K, x1 = 0.565	909 ± 36
329.75 K, x1 = 0.033	560 ± 23
329.85 K, x1 = 0.108	822 ± 33
330.35 K, x1 = 0.157	884 ± 35
331.65 K, x1 = 0.057	719 ± 29
331.65 K, x1 = 0.086	627 ± 25
332.85 K, x1 = 0.049	708 ± 28
333.95 K, x1 = 0.736	854 ± 34
338.75 K, x1 = 0.184	852 ± 34
340.75 K, x1 = 0.108	771 ± 31
341.95 K, x1 = 0.433	915 ± 37
343.15 K, x1 = 0.057	639 ± 26
345.05 K, x1 = 0.049	638 ± 26
345.85 K, x1 = 0.086	579 ± 23
347.05 K, x1 = 0.291	852 ± 34
347.65 K, x1 = 0.565	893 ± 36
347.85 K, x1 = 0.184	826 ± 33
348.35 K, x1 = 0.433	902 ± 36
350.75 K, x1 = 0.108	725 ± 29
354.15 K, x1 = 0.157	814 ± 33
357.15 K, x1 = 0.433	886 ± 35
358.65 K, x1 = 0.291	848 ± 34
360.55 K, x1 = 0.736	845 ± 34
362.95 K, x1 = 0.086	530 ± 22
365.55 K, x1 = 0.184	774 ± 32
368.45 K, x1 = 0.108	663 ± 27
373.55 K, x1 = 0.565	865 ± 35
374.25 K, x1 = 0.086	490 ± 21
375.85 K, x1 = 0.157	764 ± 31
380.65 K, x1 = 0.433	848 ± 34
381.45 K, x1 = 0.291	829 ± 33
